Data as given in paper PMC7044277 (Nature Communications, 2020).
Values joined by “and” are separate entries in the source; they are usually repeats but may differ in a detail not shown here. Equal values may be shown once.

Legend:
[1] = target: T1, 5HT4 (Homo sapiens, UniProt Q13639); experiment: β-arrestin2 recruitment (Tango); format: cell-based; conditions: Fig_S10n; for β-arrestin2 recruitment response in presence of serotonin (replicate values): +10μM serotonin; for β-arrestin2 recruitment response (dose-response source data, replicate values): drug alone
T1 construct: expressed in transfected cells; host or cells: HTLA cells expressing TEV-fused β-arrestin2
T1 sequence (Q13639 whole entry, the tested form may be a part): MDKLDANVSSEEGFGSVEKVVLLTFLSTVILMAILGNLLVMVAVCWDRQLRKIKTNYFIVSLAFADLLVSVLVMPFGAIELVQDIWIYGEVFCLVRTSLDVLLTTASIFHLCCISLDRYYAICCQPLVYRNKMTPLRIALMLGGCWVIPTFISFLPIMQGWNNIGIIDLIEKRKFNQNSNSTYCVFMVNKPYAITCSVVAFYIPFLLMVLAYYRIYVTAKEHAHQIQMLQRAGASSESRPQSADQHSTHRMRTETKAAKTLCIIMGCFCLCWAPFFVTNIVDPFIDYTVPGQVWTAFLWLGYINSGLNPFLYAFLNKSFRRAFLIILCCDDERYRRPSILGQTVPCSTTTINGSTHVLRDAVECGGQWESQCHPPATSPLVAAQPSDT

[2] = target: DRD3 (Homo sapiens, UniProt P35462); experiment: Gαi/o-mediated cAMP inhibition (GloSensor); format: cell-based; conditions: DRD3, cAMP inhibition
Sequence of DRD3 (P35462 whole entry): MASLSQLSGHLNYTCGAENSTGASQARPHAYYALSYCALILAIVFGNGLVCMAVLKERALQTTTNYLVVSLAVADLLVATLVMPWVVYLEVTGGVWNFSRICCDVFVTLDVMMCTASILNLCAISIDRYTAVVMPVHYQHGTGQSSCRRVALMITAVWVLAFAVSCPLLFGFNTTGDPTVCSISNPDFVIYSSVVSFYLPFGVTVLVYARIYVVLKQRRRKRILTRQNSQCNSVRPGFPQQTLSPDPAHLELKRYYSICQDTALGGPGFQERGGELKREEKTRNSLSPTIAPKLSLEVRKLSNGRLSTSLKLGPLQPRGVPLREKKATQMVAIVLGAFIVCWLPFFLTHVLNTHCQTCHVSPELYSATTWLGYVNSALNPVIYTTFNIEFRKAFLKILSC

[3] = target: DRD2 F1103.28A (Homo sapiens, UniProt P14416, F110A); format: binding; set-up: expressed in transfected cells; host or cells: HEK293T (ATCC CRL-11268); conditions: DRD2 F1103.28A; read-out: Ki
Sequence of DRD2 F1103.28A (P14416 whole entry F110A): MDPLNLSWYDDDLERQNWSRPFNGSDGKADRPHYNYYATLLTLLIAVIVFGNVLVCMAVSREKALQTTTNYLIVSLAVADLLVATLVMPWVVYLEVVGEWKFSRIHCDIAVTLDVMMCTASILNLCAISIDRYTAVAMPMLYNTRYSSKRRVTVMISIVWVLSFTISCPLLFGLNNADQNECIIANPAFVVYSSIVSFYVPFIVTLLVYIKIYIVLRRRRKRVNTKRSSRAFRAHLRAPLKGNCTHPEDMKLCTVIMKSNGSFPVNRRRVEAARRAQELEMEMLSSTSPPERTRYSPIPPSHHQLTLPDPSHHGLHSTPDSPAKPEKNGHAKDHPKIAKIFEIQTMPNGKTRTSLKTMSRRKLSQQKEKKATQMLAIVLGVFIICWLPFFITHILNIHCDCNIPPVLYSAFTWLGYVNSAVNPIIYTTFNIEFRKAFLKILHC

[4] = target: T2, 5HT1A (Homo sapiens, UniProt P08908); experiment: β-arrestin2 recruitment (Tango); format: cell-based; conditions: Fig_S10f, single replicates
T2 construct: expressed in transfected cells; host or cells: HTLA cells expressing TEV-fused β-arrestin2
T2 sequence (P08908 1-422): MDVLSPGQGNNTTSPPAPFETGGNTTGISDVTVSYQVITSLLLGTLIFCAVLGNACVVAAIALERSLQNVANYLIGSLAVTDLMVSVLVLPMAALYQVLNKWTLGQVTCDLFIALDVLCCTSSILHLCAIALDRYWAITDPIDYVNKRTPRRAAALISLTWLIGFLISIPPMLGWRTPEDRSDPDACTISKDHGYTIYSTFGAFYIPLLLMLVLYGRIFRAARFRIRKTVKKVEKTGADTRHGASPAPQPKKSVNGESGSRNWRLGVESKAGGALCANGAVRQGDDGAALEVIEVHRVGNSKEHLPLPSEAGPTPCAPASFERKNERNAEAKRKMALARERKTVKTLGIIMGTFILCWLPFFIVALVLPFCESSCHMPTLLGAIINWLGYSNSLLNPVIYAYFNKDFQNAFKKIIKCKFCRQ

## CCOc1cccc2cc([C@@H](C)NCC3(O)CCCCC3)oc12 [O4RE6]
[1]; Log[Drug] -6.52
  β-arrestin2 recruitment response in presence of serotonin (replicate values): 61.872
  β-arrestin2 recruitment response (dose-response source data, replicate values): 1.914
[1]; Log[Drug] -7
  β-arrestin2 recruitment response in presence of serotonin (replicate values): 64.7524 and 57.0569 and 68.7411 and 71.876 and 66.1156 and 64.7823 and 62.9846 and 72.5854 and 58.9141
  β-arrestin2 recruitment response (dose-response source data, replicate values): 0.4762 and 0.5315 and 0.3036 and 1.47 and 0.6917 and 0.6083 and -0.2126 and 0.07923 and 0.2126
[1]; Log[Drug] -7.52
  β-arrestin2 recruitment response in presence of serotonin (replicate values): 67.3937 and 54.3976 and 65.3292 and 58.7354 and 62.4375 and 61.2125 and 60.3264 and 67.443 and 67.076
  β-arrestin2 recruitment response (dose-response source data, replicate values): 0.4824 and 0.6557 and 1.0009 and 1.276 and 0.8198 and 0.6438 and -0.1108 and 0.08408 and -0.1463
[1]; Log[Drug] -8
  β-arrestin2 recruitment response in presence of serotonin (replicate values): 65.8409 and 63.3895 and 63.0679 and 59.9271 and 55.4104 and 64.9198 and 50.9713 and 49.466 and 77.9372
  β-arrestin2 recruitment response (dose-response source data, replicate values): 0.2279 and 0.2043 and 0.8233 and 0.8469 and 0.6458 and 2.318 and -0.27 and -0.308 and 0.6993
[1]; Log[Drug] -8.52
  β-arrestin2 recruitment response in presence of serotonin (replicate values): 63.4237 and 62.7587 and 63.6242 and 63.1469 and 61.3792 and 61.5198 and 57.3708 and 61.2149 and 65.253
  β-arrestin2 recruitment response (dose-response source data, replicate values): 1.195 and 1.746 and 0.9636 and 0.6083 and 1.193 and 1.147 and -0.3056 and 0.2118 and 0.0477
[1]; Log[Drug] -9
  β-arrestin2 recruitment response in presence of serotonin (replicate values): 73.1291 and 64.8356 and 60.6203 and 52.4417 and 65.9365 and 64.5823 and 63.8148 and 65.7381 and 55.6869
  β-arrestin2 recruitment response (dose-response source data, replicate values): 0.9748 and 0.4464 and 1.275 and 1.439 and 1.359 and 0.525 and -0.3751 and 0.5028 and -0.1156
[1]; Log[Drug] -9.52
  β-arrestin2 recruitment response in presence of serotonin (replicate values): 69.2832 and 67.6123 and 68.9932 and 55.1 and 63.4344 and 64.601 and 58.9998 and 66.4964 and 65.7267
  β-arrestin2 recruitment response (dose-response source data, replicate values): 0.9748 and 1.052 and 0.4042 and 0.901 and 0.7365 and 0.6104 and 1.02 and 0.3484 and -0.01698
[1]; Log[Drug] -10
  β-arrestin2 recruitment response in presence of serotonin (replicate values): 76.2485 and 62.2675 and 64.5873 and 59.8927 and 56.6667 and 68.1219 and 68.0316 and 61.4033 and 67.9677
  β-arrestin2 recruitment response (dose-response source data, replicate values): 0.629 and 0.5812 and 0.457 and 0.6927 and 0.4885 and 0.9823 and -0.2005 and 5.06 and 0.3864
[1]; Log[Drug] -10.52
  β-arrestin2 recruitment response in presence of serotonin (replicate values): 75.7189 and 64.7332 and 70.6094 and 73.5573 and 66.3448 and 67.3771 and 66.768 and 70.3542 and 67.3953
  β-arrestin2 recruitment response (dose-response source data, replicate values): 0.4328 and 0.1577 and 0.7768 and 0.8562 and 0.5281 and 1.361 and 0.08327 and -0.03395 and 0.2724
[1]; Log[Drug] -11
  β-arrestin2 recruitment response in presence of serotonin (replicate values): 74.7968 and 75.6357 and 68.127 and 60.4448 and 57.1219 and 66.626 and 65.7178 and 87.5009 and 57.2593
  β-arrestin2 recruitment response (dose-response source data, replicate values): 0.5557 and 0.7004 and 0.8308 and 2.567 and 0.5635 and 1.27 and -0.1415 and -0.4034 and 0.4066
[1]; Log[Drug] -11.52
  β-arrestin2 recruitment response in presence of serotonin (replicate values): 97.2705 and 89.1683 and 77.1935 and 74.2448 and 65.2792 and 55.4573 and 62.6402 and 78.6163 and 88.7629
  β-arrestin2 recruitment response (dose-response source data, replicate values): 0.4266 and 1.996 and 0.1267 and 1.773 and 0.5229 and 1.651 and 0.05093 and 0.01859 and 0.1746
[1]; Log[Drug] -12
  β-arrestin2 recruitment response in presence of serotonin (replicate values): 118.392 and 99.4834 and 97.7219 and 77.2104 and 74.4021 and 77.9375 and 116.996 and 81.757 and 92.5544
  β-arrestin2 recruitment response (dose-response source data, replicate values): 0.9382 and 1.326 and 1.032 (2×) and 0.8271 and 0.8656 and -0.4301 and -0.07599 and 0.5061
[2]; agonist, read-out: EC50 ± SEM
  EC50: 0.00712 ± 8e-05 µM
[2]
  G protein agonist activity: partial agonist
[2]; read-out: Emax relative to quinpirole response
  Emax: 52.4%
[3]
  Ki: 0.49 µM
[4]; Log[Drug] -9.52
  β-arrestin2 recruitment response, agonist mode (normalized): -0.3383 and -0.3342 and -0.9983 and -0.221 and -0.03249 and 2.194 and -0.4129 and -0.6658 and 0.08323
[4]; Log[Drug] -10
  β-arrestin2 recruitment response, agonist mode (normalized): -0.1671 and -0.3383 and -0.5054 and -0.1386 and -0.3173 and 2.583 and 0.605 and 2.666 and 1.376
[4]; Log[Drug] -10.52
  β-arrestin2 recruitment response, agonist mode (normalized): 0 and 0.5013 and 0.1546 and 0.5578 and -0.1419 and 1.096 and 1.898 and -0.4417 and 0.06082
[4]; Log[Drug] -11
  β-arrestin2 recruitment response, agonist mode (normalized): -0.5138 and -0.6767 and 1.165 and 0.7257 and 0.3249 and 3.762 and 0.9795 and 5.224 and 0.4673
